# Laboratory results as given in PMC4937633 (Journal of Drug Assessment, 2014).
# Values joined by “and” are separate entries in the source; they are usually repeats but may differ in a detail not shown here. Identical values can stand only once. Like-named read-outs stand apart in the source and are kept apart here.
# Assays:
# [1] = test system: primary rat hepatocytes; assay: Uptake by primary rat hepatocytes; type: in vitro ADME; settings: data not shown
# [2] = target: T1, P-glycoprotein (Pgp) (Homo sapiens, UniProt P08183); assay: Pgp inhibition potential with digoxin as model substrate (M-MDR1 cells); type: in vitro ADME; settings: in vitro
# T1 construct: host or cells: transfected MDCKII or LLCPK cells
# T1 sequence (P08183 whole entry): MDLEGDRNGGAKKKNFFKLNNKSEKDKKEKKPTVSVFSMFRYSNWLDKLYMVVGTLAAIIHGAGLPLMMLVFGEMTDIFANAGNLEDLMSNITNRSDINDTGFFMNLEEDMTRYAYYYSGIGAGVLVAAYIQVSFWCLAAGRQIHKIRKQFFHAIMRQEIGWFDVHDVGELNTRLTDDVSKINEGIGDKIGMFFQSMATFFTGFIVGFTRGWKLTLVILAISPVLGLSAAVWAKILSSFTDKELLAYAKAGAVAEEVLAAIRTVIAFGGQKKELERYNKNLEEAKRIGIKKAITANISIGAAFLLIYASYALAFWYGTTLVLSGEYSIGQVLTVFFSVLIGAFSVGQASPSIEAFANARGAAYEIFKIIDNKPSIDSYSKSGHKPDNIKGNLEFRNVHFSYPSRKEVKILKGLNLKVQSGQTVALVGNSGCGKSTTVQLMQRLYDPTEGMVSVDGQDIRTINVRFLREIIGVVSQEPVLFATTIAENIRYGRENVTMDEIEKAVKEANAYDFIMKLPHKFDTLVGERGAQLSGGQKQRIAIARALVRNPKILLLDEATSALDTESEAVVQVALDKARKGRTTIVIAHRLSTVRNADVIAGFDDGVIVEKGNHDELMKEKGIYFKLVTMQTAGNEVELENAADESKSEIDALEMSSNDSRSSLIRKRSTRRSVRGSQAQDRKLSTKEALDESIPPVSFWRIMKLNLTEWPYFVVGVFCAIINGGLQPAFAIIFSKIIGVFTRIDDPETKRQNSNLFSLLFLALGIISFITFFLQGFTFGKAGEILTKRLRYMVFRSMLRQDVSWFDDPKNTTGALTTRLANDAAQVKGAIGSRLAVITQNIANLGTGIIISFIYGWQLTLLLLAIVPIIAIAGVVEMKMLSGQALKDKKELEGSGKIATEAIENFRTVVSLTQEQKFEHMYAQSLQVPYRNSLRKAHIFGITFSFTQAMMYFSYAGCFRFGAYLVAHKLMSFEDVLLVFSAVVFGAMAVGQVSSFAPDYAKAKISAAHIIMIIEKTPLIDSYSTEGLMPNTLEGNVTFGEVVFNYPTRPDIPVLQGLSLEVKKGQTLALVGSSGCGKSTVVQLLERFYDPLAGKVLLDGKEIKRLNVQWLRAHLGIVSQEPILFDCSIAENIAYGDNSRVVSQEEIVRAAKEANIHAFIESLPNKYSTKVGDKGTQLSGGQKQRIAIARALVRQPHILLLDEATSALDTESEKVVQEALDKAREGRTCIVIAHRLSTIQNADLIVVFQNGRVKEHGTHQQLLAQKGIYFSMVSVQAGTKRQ
# Text: The non-transfected wild-type cell lines MDCKII or LLCPK were used as controls. […] More assay details were recently published.
# [3] = Clinical pharmacokinetics of carmegliptin (plasma and urine) alone or with verapamil; type: in vivo, human; settings: for AUC(0-inf) / Cmax / half-life / AUC(0-t) / Vd/F / Tmax: plasma; for Vd/F: read-out: Vz/F; for Tmax: median (range)
# Protocol: All urine produced by subjects during each sampling interval was collected in pre-weighed polyethylene containers. The urine was refrigerated (2–8°C) between collections and, at the end of each collection interval, an aliquot of ∼10 mL was transferred to polyethylene tubes.
# Plasma and urine samples were analyzed for carmegliptin by high-performance liquid chromatography combined with tandem mass spectrometric detection at F. Hoffmann-La Roche Ltd, Basel, Switzerland. The lower limit of quantification was 1 ng/mL for plasma and 20 ng/mL for urine.
# [4] = Clinical safety and tolerability assessments; type: in vivo, human
# Text: Safety assessments during the treatment period included all adverse events, clinical laboratory safety tests (days 3, 9, and 14), urine chemistry (days 1, 10, and 15), 24-h ECGs (days 1, 10, and 15), and Lead-2 telemetry (days 1, 10, and 15). Subjects were resident in the unit on four occasions (day – 1 to day 3, day 6 to day 8 [morning], day 9 [evening] to day 12, and day 14 to day 17). Ambulatory visits were also required on day 8 (evening) and day 9 (morning) for pharmacokinetic sampling.
# All adverse events (AEs) occurring during the clinical study were recorded and their intensity was assessed by investigators as mild, moderate, or severe. AEs occurring before first dosing were reported as baseline signs and symptoms. […] Investigators also assessed each AE’s relationship to treatment as unrelated, remote, possible, or probable. Factors used to determine the relationship to treatment included the temporal association of the AE with administration of study drug, the known pattern of response to the suspected drug, and re-appearance of the AE on re-challenge with the drug.
# Vital signs, systolic and diastolic blood pressure, heart rate, and oral temperature were assessed after the subject had been in a supine position for at least 5 min. Vital signs were recorded at the following time-points: Screening visit, treatment period (days 1, 10, and 15 pre-dose and at 2, 6, and 12 h post-dose, and pre-dose only on days 3, 7, and 11–14), and at the follow-up visit. In addition, 12 lead-ECGs were recorded at screening visit day – 1, on days 1, 10, and 15 (pre-dose and at 2, 6, and 12 h post-dose) and at the follow-up visit. Heart rate, QT, QTcB, PR, and QRS were captured directly from the ECG machine. QTcF and RR were derived. T-wave morphology, the occurrence of U-waves, and any other observed abnormalities were additionally recorded. […] The CRF captured whether the results were normal or abnormal.
# [5] = test system: CHO cells; assay: Uptake in CHO cells; type: in vitro ADME; settings: data not shown
# [6] = test system: primary human hepatocytes; assay: Uptake by primary human hepatocytes; type: in vitro ADME; settings: data not shown
# [7] = target: T2, human MDR1 (Homo sapiens, UniProt P08183); assay: P-glycoprotein substrate test, human MDR1 transfected MDCKII cells (M-MDR1); type: in vitro ADME; settings: in vitro; M-MDR1 and L-MDR1 cells
# T2 construct: host or cells: MDCKII (canine kidney epithelial cells), M-MDR1
# T2 sequence (P08183 whole entry): as above
# Text: (§1) Wild type and transfected MDCKII (ATCC #CCL34, cocker spaniel kidney epithelial cell line) and the LLCPK (ATCC #CL-101, porcine kidney epithelial cell line) cell lines were obtained from Dr A. Schinkel (The Netherlands Cancer Institute, Amsterdam, The Netherlands) and used under license agreement. […] The non-transfected wild-type cell lines MDCKII or LLCPK were used as controls. […] More assay details were recently published.
# [8] = target: T3, mouse mdr1a (Mus musculus, UniProt P21447); assay: P-glycoprotein substrate test, mouse mdr1a transfected LLCPK cells (L-Mdr1a); type: in vitro ADME; settings: in vitro
# T3 construct: host or cells: LLCPK (porcine kidney epithelial cells), L-Mdr1a
# T3 sequence (P21447 whole entry): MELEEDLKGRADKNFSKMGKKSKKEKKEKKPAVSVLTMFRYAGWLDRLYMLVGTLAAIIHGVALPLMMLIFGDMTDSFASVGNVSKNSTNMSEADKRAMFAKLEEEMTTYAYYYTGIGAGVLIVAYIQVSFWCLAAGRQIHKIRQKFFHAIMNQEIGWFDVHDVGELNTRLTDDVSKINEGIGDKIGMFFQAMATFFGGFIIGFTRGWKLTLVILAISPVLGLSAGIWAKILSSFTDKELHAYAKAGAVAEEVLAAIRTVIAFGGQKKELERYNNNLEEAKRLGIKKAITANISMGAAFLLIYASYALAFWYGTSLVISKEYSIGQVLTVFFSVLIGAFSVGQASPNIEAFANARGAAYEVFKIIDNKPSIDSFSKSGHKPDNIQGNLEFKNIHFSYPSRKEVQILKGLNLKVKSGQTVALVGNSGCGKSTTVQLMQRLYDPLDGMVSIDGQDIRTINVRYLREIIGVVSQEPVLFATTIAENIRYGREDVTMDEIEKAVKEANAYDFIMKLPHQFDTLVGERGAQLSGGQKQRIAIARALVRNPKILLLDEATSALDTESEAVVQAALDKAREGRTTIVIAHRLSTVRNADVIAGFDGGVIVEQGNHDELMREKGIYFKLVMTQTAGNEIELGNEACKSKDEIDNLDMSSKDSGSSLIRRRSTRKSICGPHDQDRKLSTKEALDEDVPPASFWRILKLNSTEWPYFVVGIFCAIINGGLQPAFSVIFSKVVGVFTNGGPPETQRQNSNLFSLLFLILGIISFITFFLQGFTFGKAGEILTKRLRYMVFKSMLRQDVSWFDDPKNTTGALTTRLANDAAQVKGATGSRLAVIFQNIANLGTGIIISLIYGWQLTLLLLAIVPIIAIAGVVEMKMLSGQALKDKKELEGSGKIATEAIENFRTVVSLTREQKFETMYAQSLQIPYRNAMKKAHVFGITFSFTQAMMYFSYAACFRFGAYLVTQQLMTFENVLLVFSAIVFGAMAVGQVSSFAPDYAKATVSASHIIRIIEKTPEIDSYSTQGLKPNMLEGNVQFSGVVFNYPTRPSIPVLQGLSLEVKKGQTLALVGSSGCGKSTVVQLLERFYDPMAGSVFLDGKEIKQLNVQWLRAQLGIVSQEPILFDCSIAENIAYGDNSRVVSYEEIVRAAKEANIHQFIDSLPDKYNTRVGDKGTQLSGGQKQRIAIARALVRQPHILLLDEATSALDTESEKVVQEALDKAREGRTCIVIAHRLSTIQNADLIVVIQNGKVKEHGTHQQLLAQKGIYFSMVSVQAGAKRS
# Text: as §1
# [9] = test system: Type 2 diabetes animal models; set-up: method as in PMID 17073841, PMID 17981667; settings: dose-dependent; cited from earlier work
# [10] = In vitro cell permeability; type: in vitro ADME
# Text: as §1
# [11] = test system: Pgp; settings: in vitro; cited from earlier work
# [12] = Clinical pharmacokinetics of verapamil and norverapamil alone or with carmegliptin; settings: male, human, plasma, oral, 80 mg
# [13] = acute verapamil (day 10) vs day 1
# [14] = carmegliptin 150 mg + chronic verapamil 80 mg t.i.d., day 15, geometric mean (CV%)
# [15] = chronic verapamil (day 15) vs day 1
# [16] = male, human, oral, 150 mg, carmegliptin 150 mg single dose alone, day 1, geometric mean (CV%)
# [17] = male, human, oral, carmegliptin 150 mg + acute verapamil 80 mg t.i.d., day 10, geometric mean (CV%)
# [18] = male, human, oral, carmegliptin 150 mg + chronic verapamil 80 mg t.i.d., day 15, geometric mean (CV%)
structure (smiles),measurement,setting,value
COc1cc2c(cc1OC)[C@@H]1C[C@H](N)[C@@H](N3C[C@@H](CF)CC3=O)CN1CC2 [Carmegliptin],uptake process,[1],mainly passive diffusion
same,inhibitor of P-glycoprotein (Pgp),[2],not an inhibitor
same,AUCinf higher than carmegliptin alone,[3]; [13],19%
same,Cmax higher than carmegliptin alone,[3]; [13],48%
same,maximum plasma levels attained earlier than carmegliptin alone,[3]; [13],~2.25 h
same,Fe (fraction of dose excreted unchanged in urine over 48 h),"[3]; carmegliptin 150 mg + acute verapamil 80 mg t.i.d., day 10, geometric mean (CV%)",33% and 33.1% and 33.1 (17.7) %
same,CLr (renal clearance),[3]; [14],13.6 (14.7) L/h
same,Fe (fraction of dose excreted unchanged in urine over 48 h),[3]; [14],38.7% and 38.7 (18.1) %
same,Fe (fraction of dose excreted unchanged in urine over 48 h),"[3]; carmegliptin 150 mg single dose alone, day 1, geometric mean (CV%)",26% and 26.0 (22.7) %
same,AUCinf higher than carmegliptin alone,[3]; [15],29%
same,Cmax higher than carmegliptin alone,[3]; [15],53%
same,maximum plasma levels attained earlier than carmegliptin alone,[3]; [15],~1.5 h
same,peak concentrations occurred earlier,"[3]; co-administered with verapamil, acute and chronic",1.5 to 2.25 h
same,CL renal,"[3]; male, human, plasma and urine, oral, 150 mg, read-out: CLr (renal clearance) (converted)",215 mL/min
same,AUC(0-inf),[3]; [16],3570 ng·h/mL
same,Cmax,[3]; [16],342 ng/mL
same,half-life,[3]; [16],22.4 h
same,AUC(0-t),"[3]; male, human, oral, 150 mg, carmegliptin 150 mg single dose alone, day 1, geometric mean (CV%), read-out: AUC0–24",2410 ng·h/mL
same,AUC(0-t),"[3]; male, human, oral, 150 mg, carmegliptin 150 mg single dose alone, day 1, geometric mean (CV%), read-out: AUClast",3010 ng·h/mL
same,Vd/F,[3]; [16],1360 L
same,Tmax,"[3]; male, human, oral, 150 mg, carmegliptin 150 mg single dose alone, day 1",3 h
same,AUC(0-inf),[3]; [17],4250 ng·h/mL
same,Cmax,[3]; [17],505 ng/mL
same,half-life,[3]; [17],21.8 h
same,AUC(0-t),"[3]; male, human, oral, carmegliptin 150 mg + acute verapamil 80 mg t.i.d., day 10, geometric mean (CV%), read-out: AUC0–24",2950 ng·h/mL
same,AUC(0-t),"[3]; male, human, oral, carmegliptin 150 mg + acute verapamil 80 mg t.i.d., day 10, geometric mean (CV%), read-out: AUClast",3650 ng·h/mL
same,Vd/F,[3]; [17],1110 L
same,Tmax,"[3]; male, human, oral, carmegliptin 150 mg + acute verapamil 80 mg t.i.d., day 10",0.75 h
same,AUC(0-inf),[3]; [18],4590 ng·h/mL
same,Cmax,[3]; [18],522 ng/mL
same,half-life,[3]; [18],14.4 h
same,AUC(0-t),"[3]; male, human, oral, carmegliptin 150 mg + chronic verapamil 80 mg t.i.d., day 15, geometric mean (CV%), read-out: AUC0–24",3620 ng·h/mL
same,AUC(0-t),"[3]; male, human, oral, carmegliptin 150 mg + chronic verapamil 80 mg t.i.d., day 15, geometric mean (CV%), read-out: AUClast",4280 ng·h/mL
same,Vd/F,[3]; [18],678 L
same,Tmax,"[3]; male, human, oral, carmegliptin 150 mg + chronic verapamil 80 mg t.i.d., day 15",1.5 h
same,subjects with prolonged PQ(PR) intervals (>200 ms),[4]; after carmegliptin alone (day 1),one
same,tolerability,[4]; combination of carmegliptin and verapamil,generally well tolerated
same,"changes in vital signs, ECGs, or laboratory test variables attributed to treatment",[4]; healthy male volunteers,No changes
same,tolerability,"[4]; healthy male volunteers, carmegliptin 150 mg",generally well tolerated
same,uptake process,[5],mainly passive diffusion
same,uptake process,[6],mainly passive diffusion
same,substrate of human MDR1 / human Pgp,[7],good substrate
same,substrate of rodent mdr1a,[8],good substrate
same,glucose tolerance,[9],improved glucose tolerance
same,cell permeability,[10],low cell permeability
COc1ccc(CCNCCCC(C#N)(c2ccc(OC)c(OC)c2)C(C)C)cc1OC (stereo not shown) [Norverapamil],effect on Pgp activity,[11],inhibitory effects on Pgp activity
same,AUC(0-t),[12],203 ng·h/mL
same,Cmax,[12],63.8 ng/mL
same,Tmax,[12],1 h
